Source: US20100040666A1, “Method for Control of Drug Elution Rate and Composition for Coating of Drug-Eluting Stent” (priority 2005, published 2010)

Experiment: Elution test of compound represented by structural formula (2) from poly (MPC-co-BMA)
Assay type: physicochemical
Details: thin plate of stainless steel coated sequentially with compositions of Examples 1 to 3, immersed in distilled water
Method: Test 2: Elution Test of Compound Represented by Structural Formula (2)
The elution test of the compound represented by the structural formula (2) from poly (MPC-co-BMA) was conducted. The test sample was prepared by coating sequentially the compositions from Examples 1 to 3 to a thin plate of stainless steel. The prepared sample was immersed in distilled water, and then the amount of the eluted compound represented by the structural formula (2) was measured with time.
It can be verified that the compound represented by the structural formula (2) is eluted for about 100 hours. In addition, even after 100 hours, the compound represented by the structural formula (2) is eluted gradually for 400 hours, and thus it can be verified that controlled release is intended.

## CCOc1cccc(C(CC)n2nc(C(=O)O)c3c2-c2ccc(OCc4cncnc4)cc2CC3)c1 (centres unmarked) [structural formula (2)]
  time for which the compound is eluted (cumulative eluted amount, FIG. 3): about 100 hours
  time for which the compound is eluted gradually, even after 100 hours (controlled release): 400 h
